Measurements published in PMC7280082 (Acta Pharmaceutica Sinica. B, 2019).

Experiments:
[1] = test system: HIV-1 E138K mutant strain; assay: microbe, parasite or virus in culture; assay type: cell-based; conditions: for SI E138K: CC50/EC50; for EC50: Human immunodeficiency virus 1, MT4, read-out: EC50 E138K; for RF E138K: ratio of EC50 (resistant viral strain)/EC50 (wild-type viral strain)
[2] = test system: HIV-1 RES056 (K103N + Y181C) double-mutant strain; assay: microbe, parasite or virus in culture; assay type: cell-based; conditions: for SI RES056: CC50/EC50; for EC50: Human immunodeficiency virus 1, MT4, read-out: EC50 RES056; for RF RES056: ratio of EC50 (resistant viral strain)/EC50 (wild-type viral strain)
[3] = test system: HIV-1 Y188L mutant strain; assay: microbe, parasite or virus in culture; assay type: cell-based; conditions: for SI Y188L: CC50/EC50; for EC50: Human immunodeficiency virus 1, MT4, read-out: EC50 Y188L; for RF Y188L: ratio of EC50 (resistant viral strain)/EC50 (wild-type viral strain)
[4] = test system: HIV-1 F227L + V106A double-mutant strain; assay: microbe, parasite or virus in culture; assay type: cell-based; conditions: for SI F227L + V106A: CC50/EC50; for EC50: Human immunodeficiency virus 1, MT4, read-out: EC50 F227L + V106A; for RF F227L + V106A: ratio of EC50 (resistant viral strain)/EC50 (wild-type viral strain)
[5] = test system: HIV-1 L100I mutant strain; assay: microbe, parasite or virus in culture; assay type: cell-based; conditions: for SI L100I: CC50/EC50; for EC50: Human immunodeficiency virus 1, MT4, read-out: EC50 L100I; for RF L100I: ratio of EC50 (resistant viral strain)/EC50 (wild-type viral strain)
[6] = Cytotoxicity in mock-infected MT-4 cell cultures, MTT method; conditions: human, mock-infected MT-4 cells
HIV-2 strain (ROD) = assay: Anti-HIV-2; assay type: cell-based; conditions: for EC50: Human immunodeficiency virus 2, MT4, read-out: EC50 ROD; for SI ROD: ratio of CC50/EC50
[7] = test system: HIV-1 K103N mutant strain; assay: microbe, parasite or virus in culture; assay type: cell-based; conditions: for SI K103N: CC50/EC50; for EC50: Human immunodeficiency virus 1, MT4, read-out: EC50 K103N; for RF K103N: ratio of EC50 (resistant viral strain)/EC50 (wild-type viral strain)
WT HIV-1 RT = WT HIV-1 RT (Human immunodeficiency virus type 1 group M subtype B, UniProt P03366); assay: Recombinant HIV-1 RT inhibitory assay; assay type: biochemical
WT HIV-1 (IIIB) = assay: microbe, parasite or virus in culture; assay type: cell-based; conditions: for EC50: Human immunodeficiency virus 1, IIIB, MT4, read-out: EC50 IIIB; for SI IIIB: ratio of CC50/EC50
[8] = test system: HIV-1 Y181C mutant strain; assay: microbe, parasite or virus in culture; assay type: cell-based; conditions: for SI Y181C: CC50/EC50; for EC50: Human immunodeficiency virus 1, MT4, read-out: EC50 Y181C; for RF Y181C: ratio of EC50 (resistant viral strain)/EC50 (wild-type viral strain)

| Compound | SI E138K [1] | EC50 [1] [nM] | RF E138K [1] | SI RES056 [2] | EC50 [2] [nM] | RF RES056 [2] | SI Y188L [3] | EC50 [3] [nM] | RF Y188L [3] | EC50 [4] [nM] | RF F227L + V106A [4] | EC50 [5] [nM] | RF L100I [5] | CC50 at 5 days [6] [µM] | EC50 (HIV-2 strain (ROD)) [µM] | EC50 [7] [nM] | RF K103N [7] | EC50 (WT HIV-1 (IIIB)) [nM] | EC50 [8] [nM] | RF Y181C [8] | further results |
| --- | --- | --- | --- | --- | --- | --- | --- | --- | --- | --- | --- | --- | --- | --- | --- | --- | --- | --- | --- | --- | --- |
| Cc1cc(-c2cccc(N(C)C)c2)cc(C)c1Oc1nc(NC2CCN(Cc3ccc(C(N)=O)cc3)CC2)nc2ccsc12 [Compound 32, 4-((4-((4-((3'-(Dimethylamino)-3,5-dimethyl-[1,1′-biphenyl]-4-yl)oxy)thieno[3,2-d]pyrimidin-2-yl)amino)piperidin-1-yl)methyl)benzamide] | 100 | 198 ± 34.2 | 1.2 | 5 | 4300 ± 1540 | 26.2 | 36 | 552 ± 45.6 | 3.4 | 783 ± 196 | 4.8 | 1140 ± 99.2 | 6.9 | 19.8 ± 4.47 | 4.66 ± 0.824 | 212 ± 7.34 | 1.3 | 163 ± 57.8 | 626 ± 39.2 | 3.8 | SI F227L + V106A [4]: 25; SI L100I [5]: 17; SI ROD (HIV-2 strain (ROD)): 4; SI K103N [7]: 93; IC50 (WT HIV-1 RT): 271 ± 16 nM; SI IIIB (WT HIV-1 (IIIB)): 121; SI Y181C [8]: 32 |
| COc1ccc(-c2cc(C)c(Oc3nc(NC4CCN(Cc5ccc(C(N)=O)cc5)CC4)nc4ccsc34)c(C)c2)cc1 [Compound 22, 4-((4-((4-((4′-Methoxy-3,5-dimethyl-[1,1′-biphenyl]-4-yl)oxy)thieno[3,2-d]pyrimidin-2-yl)amino)piperidin-1-yl)methyl)benzamide] | 90 | 149 ± 42 | 2.8 | 12 | 1120 ± 353 | 21.4 | 122 | 110 ± 3.57 | 2.1 | 297 ± 39.8 | 5.7 | 268 ± 103 | 5.1 | 13.4 ± 5.94 | 5.04 ± 0.685 | 58.4 ± 7.14 | 1.1 | 52.6 ± 11.4 | 158 ± 27.3 | 3.0 | SI F227L + V106A [4]: 45; SI L100I [5]: 50; SI ROD (HIV-2 strain (ROD)): 3; SI K103N [7]: 230; IC50 (WT HIV-1 RT): 233 ± 28 nM; SI IIIB (WT HIV-1 (IIIB)): 256; SI Y181C [8]: 85 |
| Cc1cc(-c2ccc(F)cc2)cc(C)c1Oc1nc(NC2CCN(Cc3ccc(C(N)=O)cc3)CC2)nc2ccsc12 [Compound 24, 4-((4-((4-((4′-Fluoro-3,5-dimethyl-[1,1′-biphenyl]-4-yl)oxy)thieno[3,2-d]pyrimidin-2-yl)amino)piperidin-1-yl)methyl)benzamide] | 195 | 34.8 ± 10.6 | 2.7 | 12 | 575 ± 120 | 44.9 | 132 | 51.4 ± 9.6 | 4.0 | 56.6 ± 13.7 | 4.4 | 61.1 ± 9.35 | 4.8 | 6.8 ± 3.13 | ≥ 5.66 | 11.7 ± 1.09 | 0.9 | 12.8 ± 2.73 | 36.1 ± 1.21 | 2.8 | SI F227L + V106A [4]: 120; SI L100I [5]: 111; SI ROD (HIV-2 strain (ROD)): <1; SI K103N [7]: 578; IC50 (WT HIV-1 RT): 171 ± 10 nM; SI IIIB (WT HIV-1 (IIIB)): 532; SI Y181C [8]: 189 |
| Cc1cc(-c2ccc(F)cc2)cc(C)c1Oc1nc(NC2CCN(Cc3ccc(S(N)(=O)=O)cc3)CC2)nc2ccsc12 [Compound 23, 4-((4-((4-((4′-Fluoro-3,5-dimethyl-[1,1′-biphenyl]-4-yl)oxy)thieno[3,2-d]pyrimidin-2-yl)amino)piperidin-1-yl)methyl)benzenesulfonamide] | 547 | 30.9 ± 5.26 | 2.7 | 43 | 388 ± 76.2 | 34.3 | 326 | 51.8 ± 8.47 | 4.6 | 46.6 ± 15.5 | 4.1 | 45.4 ± 5.26 | 4.0 | 16.9 ± 4.77 | 3.28 ± 1.26 | 11.7 ± 1.03 | 1.0 | 11.3 ± 2.07 | 44.8 ± 5.26 | 4.0 | SI F227L + V106A [4]: 363; SI L100I [5]: 372; SI ROD (HIV-2 strain (ROD)): 5; SI K103N [7]: 1441; IC50 (WT HIV-1 RT): 211 ± 15 nM; SI IIIB (WT HIV-1 (IIIB)): 1492; SI Y181C [8]: 377 |
| COc1ccc(-c2cc(C)c(Oc3nc(NC4CCN(Cc5ccc(S(N)(=O)=O)cc5)CC4)nc4ccsc34)c(C)c2)cc1 [Compound 21, 4-((4-((4-((4′-Methoxy-3,5-dimethyl-[1,1′-biphenyl]-4-yl)oxy)thieno[3,2-d]pyrimidin-2-yl)amino)piperidin-1-yl)methyl)benzenesulfonamide] | 145 | 114 ± 9.2 | 1.9 | 11 | 1560 ± 1280 | 25.6 | 114 | 146 ± 44.7 | 2.4 | 122 ± 59.9 | 2.0 | 169 ± 2.91 | 2.8 | 16.6 ± 4.65 | > 16.6 | 57.6 ± 0.67 | 0.9 | 61.1 ± 10.3 | 157 ± 5.61 | 2.6 | SI F227L + V106A [4]: 136; SI L100I [5]: 98; SI ROD (HIV-2 strain (ROD)): <1; SI K103N [7]: 289; IC50 (WT HIV-1 RT): 268 ± 52 nM; SI IIIB (WT HIV-1 (IIIB)): 272; SI Y181C [8]: 105 |
| Cc1cc(C#N)cc(C)c1Oc1nc(Nc2ccc(C#N)cc2)nc(N)c1Br [ETR, Etravirine, reference compound] |  | 8.07 ± 2.52 | 1.6 |  | 42.5 ± 15.1 | 8.4 |  | 17.3 ± 5.53 | 3.5 | 14.2 ± 5.14 | 2.8 | 6.35 ± 1.77 | 1.3 | > 4.59 | > 4.59 | 3.13 ± 0.42 | 0.6 | 5.03 ± 1.68 | 12.2 ± 2.63 | 2.4 |  |
| Cc1cc(-c2ccco2)cc(C)c1Oc1nc(NC2CCN(Cc3ccc(C(N)=O)cc3)CC2)nc2ccsc12 [Compound 12, 4-((4-((4-(4-(Furan-2-yl)-2,6-dimethylphenoxy)thieno[3,2-d]pyrimidin-2-yl)amino)piperidin-1-yl)methyl)benzamide] | 101 | 287 ± 4.98 | 3.1 | 10 | 2900 ± 119 | 31.1 | 94 | 307 ± 58.2 | 3.3 | 1110 ± 269 | 11.9 | 414 ± 37.9 | 4.4 | 28.9 ± 15.6 | 25.3 | 129 ± 5.87 | 1.4 | 93.3 ± 82.8 | 511 ± 77.2 | 5.5 | SI F227L + V106A [4]: 26; SI L100I [5]: 70; SI ROD (HIV-2 strain (ROD)): 1; SI K103N [7]: 224; IC50 (WT HIV-1 RT): 901 ± 45 nM; SI IIIB (WT HIV-1 (IIIB)): 310; SI Y181C [8]: 57 |
| Cc1cc(-c2ccsc2)cc(C)c1Oc1nc(NC2CCN(Cc3ccc(C(N)=O)cc3)CC2)nc2ccsc12 [Compound 18, 4-((4-((4-(2,6-Dimethyl-4-(thiophen-3-yl)phenoxy)thieno[3,2-d]pyrimidin-2-yl)amino)piperidin-1-yl)methyl)benzamide] | 23 | 739 ± 318 | 3.1 | 4 | 4520 ± 1450 | 18.8 | 27 | 628 ± 49.6 | 2.6 | 854 ± 186 | 3.6 | 925 ± 286 | 3.8 | 17 ± 12.9 | > 17 | 171 ± 56.9 | 0.7 | 240 ± 94.3 | 741 ± 154 | 3.1 | SI F227L + V106A [4]: 20; SI L100I [5]: 18; SI ROD (HIV-2 strain (ROD)): <1; SI K103N [7]: 99; SI IIIB (WT HIV-1 (IIIB)): 71; SI Y181C [8]: 23 |
| O=C1Nc2ccc(Cl)cc2[C@@](C#CC2CC2)(C(F)(F)F)O1 [EFV, efavirenz, reference compound] |  |  |  |  |  |  |  | 306 ± 53.9 |  | 268 ± 48.7 |  | 46.5 ± 9.11 |  | > 6.33 | > 5.33 | 111 ± 35.4 |  | 5.25 ± 1.98 | 6.33 ± 1.06 |  |  |
| Cc1ccnc2c1NC(=O)c1cccnc1N2C1CC1 [NVP, Nevirapine, reference compound] |  | 115 ± 24.5 | 0.6 |  | > 9510 | NA (>51.1) |  | > 9510 | NA (>51) | > 9510 | NA (>51.1) | 1400 ± 828 | 7.5 | > 9.51 | > 9.51 | 7820 ± 556 | 42 | 186 ± 59 | > 9510 | NA (>51.1) |  |
